Assay results published in publication PMC11997890, “In Vivo and In Vitro Pharmacokinetic Studies of a Dual Topoisomerase I/II Inhibitor” (ACS Pharmacology & Translational Science, 2025).
pIC50: −log10 of the molar value.

What was measured:
[1] = Plasma protein binding by ultrafiltration; type: in vitro ADME; parameters: dose or concentration left out as unconfirmed; settings: human, rat, human and rat plasma, 37 °C
Description: (§1) To examine the effect of the P8-D6 plasma protein binding on the in vivo bioavailability, human and rat plasma was spiked in vitro and incubated with P8-D6. By using ultrafiltration to separate free P8-D6 from the protein-bound fraction, a plasma protein binding of 99% (Figure A) was estimated. However, neither human α-1-microglobulin (3.06%) nor human serum albumin (0.91%) is responsible for binding. According to initial findings, γ-globulins (94.59%), human transferrin (90.43%), LDL (87.99%), human α2-HS glycoprotein (85.29%), and human fibrinogen (78.89%) lead to binding of P8-D6.
To examine the extent of plasma protein binding, 150 μL of blank samples of human plasma […] and rat plasma […], human albumin (1 mM, #A1653, Merck KGaA, Darmstadt); human α1-acid glycoprotein (1 mM; #G9885, Merck KGaA, Darmstadt); human α2-HS-glycoprotein (0.1 mM; #G0516, Merck KGaA, Darmstadt); human transferrin (0.2 mM; #T8158, Merck KGaA, Darmstadt); human fibrinogen (0.2 mM; #F3879, Merck KGaA, Darmstadt); LDL (0.2 mM; […]); and human γ-globulin (1 mM; #G4386, Merck KGaA, Darmstadt) were spiked with P8-D6 in the same final concentration as the protein and incubated in a shaking water bath at 37 °C for 120 min. Afterward, the unbound fraction of P8-D6 was separated by ultrafiltration (Vivaspin 500 10 000 MWCO filter). The sample preparation was performed according to plasma samples. […]

CYP2B6 = molecular target: T1, CYP2B6 (Homo sapiens, UniProt P20813); test: In vitro CYP inhibition, marker substrate bupropion; type: in vitro ADME
T1 construct: host or cells: human liver microsomes (one value) / recombinant CYP enzyme (other value)
Description: (§2) To assess metabolizing enzyme-mediated drug interactions, P8-D6 was incubated with human liver (HLM) or recombinant CYP enzymes and the respective marker substrate according to the FDA (with the exception of using amitriptyline instead of S-mephenytoin). −
(§3) However, as some conversions were catalyzed by several enzymes, the conversion rates in HLM increased (e.g., bupropion and diclofenac).
(§4) To examine a possible in vitro CYP inhibition, the following CYP enzymes and marker substrates were investigated according to the FDA: , phenacetin (CYP1A2), bupropion (CYP2B6), amodiaquine (CYP2C8), diclofenac (CYP2C9), amitriptyline (CYP2C19), dextromethorphan (CYP2D6), testosterone (CYP3A4), and nifedipine (CYP3A4). Incubation was performed in a 0.2 mL reaction mix consisting of PBS buffer (pH 7.4), 1 mM marker substrate, 1 mM NADPH, and either 0.5 mg/mL recombinant CYP enzyme or human liver microsomes. P8-D6 was added for a final concentration of 0.5 μM, 1 μM, 5 μM, 10 μM, 25 μM, 50 μM, 100 μM, 500 μM, 1000 μM, and (in some cases) 5000 μM. Sample preparation was performed according to in vitro biotransformation.

CYP2D6 [2] = molecular target: T2, CYP2D6 (Homo sapiens, UniProt P10635); test: In vitro CYP inhibition, marker substrate dextromethorphan; type: in vitro ADME
T2 construct: host or cells: human liver microsomes (one value) / recombinant CYP enzyme (other value)
Description: as §2, §3, §4

γ-globulins = test: Binding to isolated plasma protein by ultrafiltration; parameters: species or system human
Description: as §1
To examine the extent of plasma protein binding, 150 μL of blank samples of human plasma (1 mM) and rat plasma (1 mM), human albumin (1 mM, #A1653, Merck KGaA, Darmstadt); human α1-acid glycoprotein (1 mM; #G9885, Merck KGaA, Darmstadt); human α2-HS-glycoprotein (0.1 mM; #G0516, Merck KGaA, Darmstadt); human transferrin (0.2 mM; #T8158, Merck KGaA, Darmstadt); human fibrinogen (0.2 mM; #F3879, Merck KGaA, Darmstadt); LDL (0.2 mM; […]); and human γ-globulin (1 mM; #G4386, Merck KGaA, Darmstadt) were spiked with P8-D6 in the same final concentration as the protein and incubated in a shaking water bath at 37 °C for 120 min. Afterward, the unbound fraction of P8-D6 was separated by ultrafiltration (Vivaspin 500 10 000 MWCO filter). The sample preparation was performed according to plasma samples. […]

CYP2D6 [3] = molecular target: T2, CYP2D6; test: Conversion of P8-D6 by recombinant CYP2D6; type: in vitro ADME
Description: P8-D6 N-oxide was the most common metabolite for all incubations with subcellular fractions from the homogenized tissue. According to the detected MS-MS fragments (supplied as Supporting Information Chapter 2), it resulted from N-oxygenation of the nitrogen at the side chain since the unmodified fragment of P8-DO (m/z = 414.1) was detected. Furthermore, the detected fragment at m/z = 440.1 is most likely a carbocation at the remaining ethyl chain after splitting off the dimethylamine N-oxide further strengthening the theory of selectively forming this specific N-oxide. In addition, no relevant chemical shifts in the aromatic range of the ^1H NMR compared to P8-D6 and mono were observed (supplied as Supporting Information Chapter 2). Thus, no chemical modifications can have occurred on the aromatic rings, and all changes must therefore affect the side chain. […] To determine which enzymes were responsible for the conversion, seven recombinant CYP 450 isoenzymes recommended by the FDA’s “Guidance for Industry” and human FMO3 were used.
Among the recombinant enzymes, P8-D6 is mostly metabolized to P8-D6 mono by CYP3A4 (0.34%, significant compared to any other enzyme, p < 0.0001) and 2D6 (0.17%, significant compared to 2C8, 1A2, 2C19, and 2C9, p < 0.005) (Figure E). […]

T2 sequence (P10635 whole entry): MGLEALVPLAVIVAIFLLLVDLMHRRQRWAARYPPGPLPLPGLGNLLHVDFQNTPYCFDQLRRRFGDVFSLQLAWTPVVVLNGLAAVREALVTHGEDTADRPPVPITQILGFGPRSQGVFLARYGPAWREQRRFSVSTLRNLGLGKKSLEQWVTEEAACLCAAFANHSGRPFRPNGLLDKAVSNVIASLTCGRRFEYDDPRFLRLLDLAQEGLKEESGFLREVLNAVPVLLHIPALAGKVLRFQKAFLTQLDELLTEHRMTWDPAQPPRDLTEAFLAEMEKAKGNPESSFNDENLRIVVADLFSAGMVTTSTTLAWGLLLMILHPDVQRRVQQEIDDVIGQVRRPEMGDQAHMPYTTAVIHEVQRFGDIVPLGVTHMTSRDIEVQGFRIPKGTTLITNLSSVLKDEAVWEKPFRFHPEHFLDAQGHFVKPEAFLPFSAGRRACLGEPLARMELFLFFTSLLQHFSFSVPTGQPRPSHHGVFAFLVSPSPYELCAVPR
T1 sequence (P20813 whole entry): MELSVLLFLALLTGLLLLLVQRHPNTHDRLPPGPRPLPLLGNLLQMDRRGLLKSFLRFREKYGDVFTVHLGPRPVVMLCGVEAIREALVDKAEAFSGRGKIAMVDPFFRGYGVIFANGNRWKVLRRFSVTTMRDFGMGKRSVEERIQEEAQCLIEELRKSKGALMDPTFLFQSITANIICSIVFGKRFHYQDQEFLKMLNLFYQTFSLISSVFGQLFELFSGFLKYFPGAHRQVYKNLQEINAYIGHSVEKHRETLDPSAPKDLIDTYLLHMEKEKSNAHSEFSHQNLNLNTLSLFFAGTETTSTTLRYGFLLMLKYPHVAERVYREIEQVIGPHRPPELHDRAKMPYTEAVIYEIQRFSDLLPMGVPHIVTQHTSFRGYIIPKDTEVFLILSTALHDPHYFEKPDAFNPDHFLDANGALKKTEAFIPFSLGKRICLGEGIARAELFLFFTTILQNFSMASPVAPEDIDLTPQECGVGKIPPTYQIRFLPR

| SMILES | fraction unbound at 120 min [1] | pIC50 (CYP2B6; HLM) | pIC50 (CYP2B6; recombinant CYP isoenzyme) | pIC50 (CYP2D6 [2]; HLM) | pIC50 (CYP2D6 [2]; recombinant CYP isoenzyme) | binding of P8-D6 (γ-globulins) [%] | formation of metabolite from P8-D6 (CYP2D6 [3]) [%] |
| --- | --- | --- | --- | --- | --- | --- | --- |
| COc1cc(-c2cc3ccncc3c3nc(OCCN(C)C)c4cnccc4c23)cc(OC)c1OC [P8-D6, 6-(N,N-dimethyl-2-aminoethoxy)-11-(3,4,5-trimethoxyphenyl)-pyrido[3,4-c][1,9]-phenanthroline] | 0.01 | < 3.00 | < 3.00 | 3.55 | 3.78 | 94.59 |  |
| CNCCOc1nc2c3cnccc3cc(-c3cc(OC)c(OC)c(OC)c3)c2c2ccncc12 [P8-D6 mono] |  |  |  |  |  |  | 0.17 |
| COc1cc(-c2cc3ccncc3c3[nH]c(=O)c4cnccc4c23)cc(OC)c1OC [P8-DO] |  |  |  |  |  |  | 0.09 |
